Measurements reported in patent publication US20250230138A1, “COMPOUNDS HAVING A T-STRUCTURE FORMED BY AT LEAST FOUR CYCLES FOR USE IN THE TREATMENT OF CANCER AND OTHER INDICATIONS” (TheRas, Inc., priority 2022, published 2025).
Read-outs that look alike come from different tables or passages of the source.

Experiments:
[1] = molecular target: Cys242 in human PIK3CA (157-299) (Homo sapiens (Human), UniProt P42336); experiment: Covalent modification assay using MALDI-TOF MS; assay type: biochemical; details: 4 h reaction time point; 3.33 μM protein target, 1:7.5 protein to compound ratio (compounds 1-852)
Sequence of Cys242 in human PIK3CA (157-299) (P42336 157-299): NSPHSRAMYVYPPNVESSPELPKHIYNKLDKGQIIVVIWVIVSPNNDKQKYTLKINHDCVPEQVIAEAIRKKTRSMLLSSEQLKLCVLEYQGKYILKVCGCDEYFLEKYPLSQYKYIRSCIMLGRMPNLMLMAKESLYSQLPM
Procedure, shortened: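 PIK3CA (157-299), 3.33 or 1 μM in 20 mM HEPES, 150 mM NaCl, 2 mM MgCl2, pH 7.3, was incubated with compound at room temperature in the dark for 15 min, 30 min, 2 h or 4 h. Linear MALDI-TOF read-out; % modification = adduct peak height over summed heights of all protein species.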

pAKT in BT474 cells = experiment: Cell-based pAKT HTRF assay in BT474 cells; details: BT474 cells, 4 hr incubation, Compounds 10-999, read-out: pAKT inhibition IC50 in BT474 cells
Procedure, shortened: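 The HTRF signal (excitation 320 nm, emission 615 nm) came from d2/Eu Cryptate antibodies added to lysates and incubated 4–24 h at room temperature. Those lysates were taken from cells treated for 4 hr with compound, top concentration 3 μM, in 0.25% DMSO.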

Row | IC50 (pAKT in BT474 cells) [nM] | IC50 (pAKT in BT474 cells; Homo sapiens, BT-474) [nM] | SMILES | % of modification [1]
1 | < 100 | – | C=CC(=O)N1Cc2cc(-c3nc(-c4ccc5c(c4)CN(C)C5=O)c4ccsc4c3-c3c(F)cc(F)cc3OCCOC)nn2CC1C (centres unmarked) [Compound 474] | A (percent of modification of PIK3CA protein ≥75%)
2 | > 3000 | – | C=CC(=O)N1CCc2nc(-c3nc(-c4ccc5c(c4)CCN(C)C5)c4ccsc4c3-c3c(F)cc(F)cc3OC(F)F)sc2C1 [Compound 475] | B (50%<percent of modification <75%)
3 | – | 100 to 1000 | C=CC(=O)N1Cc2cc(-c3nc(-c4ccc5c(c4)CCN(C)C5)c4ccsc4c3-c3c(F)cc(F)cc3OC(C)C)cnc2C[C@H]1C [Compound 476, 1-((7R)-3-(7-(2,4-difluoro-6-isopropoxyphenyl)-4-(2-methyl-1,2,3,4-tetrahydroisoquinolin-6-yl)thieno[3,2-c]pyridin-6-yl)-7-methyl-7,8-dihydro-1,6-naphthyridin-6(5H)-yl)prop-2-en-1-one] | A (percent of modification of PIK3CA protein ≥75%)
4 | 100 to 1000 | – | C=CC(=O)N1Cc2cc(-c3nc(-c4ccc5c(c4)CCN(C)C5)c4ccsc4c3-c3c(F)cc(F)cc3OC(C)C)nn2C[C@H]1C [Compound 478, 1-((R)-2-((R)-7-(2,4-difluoro-6-isopropoxyphenyl)-4-(2-methyl-1,2,3,4-tetrahydroisoquinolin-6-yl)thieno[3,2-c]pyridin-6-yl)-6-methyl-6,7-dihydropyrazolo[1,5-a]pyrazin-5(4H)-yl)prop-2-en-1-one] | D (percent of modification <25%)
5 | < 100 | – | C=CC(=O)N1Cc2cc(-c3nc(-c4ccc5c(c4)CCN(C)C5)c4ccsc4c3-c3c(F)cc(F)cc3OC(C)C)nn2C[C@H]1C [Compound 479, 1-((R)-2-((S)-7-(2,4-difluoro-6-isopropoxyphenyl)-4-(2-methyl-1,2,3,4-tetrahydroisoquinolin-6-yl)thieno[3,2-c]pyridin-6-yl)-6-methyl-6,7-dihydropyrazolo[1,5-a]pyrazin-5(4H)-yl)prop-2-en-1-one] | A (percent of modification of PIK3CA protein ≥75%)
6 | – | < 100 | C=CC(=O)N1[C@H](C)Cn2nc(-c3nc(-c4ccc5c(c4)CCN(C)C5)c4ccsc4c3-c3c(F)cc(F)cc3OCCOC)cc2[C@@H]1C [Compound 480, 1-((4S,6R)-2-(7-(2,4-difluoro-6-(2-methoxyethoxy)phenyl)-4-(2-methyl-1,2,3,4-tetrahydroisoquinolin-6-yl)thieno[3,2-c]pyridin-6-yl)-4,6-dimethyl-6,7-dihydropyrazolo[1,5-a]pyrazin-5(4H)-yl)prop-2-en-1-one] | A (percent of modification of PIK3CA protein ≥75%)
7 | < 100 | – | C=CC(=O)N1CCc2ccc(-c3nc(-c4cnc5c(c4)CNC(=O)C5)c4ccsc4c3-c3c(F)cc(F)cc3OCCOC)cc2C1 [Compound 482] | A (percent of modification of PIK3CA protein ≥75%)
8 | < 100 | – | C=CC(=O)N1Cc2cc(-c3nc(-c4ccc5c(c4)CCN(C)C5)c4ccsc4c3-c3c(F)cc(F)cc3OCCO)nn2[C@@H](C)C1 [Compound 483] | A (percent of modification of PIK3CA protein ≥75%)
9 | < 100 | – | C=CC(=O)N1Cc2cc(-c3nc(-c4ccc5c(c4)CCN(C)C5)c4ccsc4c3-c3c(F)cc(F)cc3OC)nn2C(C)C1 (centres unmarked) [Compound 484] | A (percent of modification of PIK3CA protein ≥75%)
10 | < 100 | – | C=CC(=O)N1Cc2cc(-c3nc(-c4ccc5c(c4)CCN(C)C5)c4ccsc4c3-c3c(F)cc(F)cc3OCC)nn2C(C)C1 (centres unmarked) [Compound 485] | A (percent of modification of PIK3CA protein ≥75%)
11 | < 100 | – | C=CC(=O)N1Cc2cc(-c3nc(-c4ccc5ncn(C)c5c4)c4ccsc4c3-c3c(F)cc(F)cc3OC(C)C)nn2CC1C (centres unmarked) [Compound 488] | A (percent of modification of PIK3CA protein ≥75%)
12 | < 100 | – | C=CC(=O)N1Cc2cc(-c3nc(-c4cnn(CC(C)(C)O)c4)c4ccsc4c3-c3c(F)cc(F)cc3OC(C)C)nn2CC1C (centres unmarked) [Compound 490] | A (percent of modification of PIK3CA protein ≥75%)
13 | < 100 | – | C=CC(=O)N1Cc2cc(-c3nc(-c4cnn(CC(C)(C)O)c4)c4ccsc4c3-c3c(F)cc(F)cc3OCCOC)nn2[C@@H](C)C1 [Compound 491] | A (percent of modification of PIK3CA protein ≥75%)
14 | < 100 | – | C=CC(=O)N1Cc2cc(-c3nc(-c4cnn(CC(C)(C)O)c4)c4ccsc4c3-c3c(F)cc(F)cc3OC(C)C)nn2[C@@H](C)C1 [Compound 493] | A (percent of modification of PIK3CA protein ≥75%)
15 | < 100 | – | C=CC(=O)N1Cc2cc(-c3nc(-c4ccc5c(c4)CN(C)C5=O)c4ccsc4c3-c3c(F)cc(F)cc3OCCO)nn2CC1C (centres unmarked) [Compound 494] | A (percent of modification of PIK3CA protein ≥75%)
16 | < 100 | – | C=CC(=O)N1Cc2cc(-c3nc(-c4cnc5c(c4)CNC(=O)C5)c4ccsc4c3-c3c(F)cc(F)cc3OC(C)C)nn2CC1C (centres unmarked) [Compound 495] | A (percent of modification of PIK3CA protein ≥75%)
17 | < 100 | – | C=CC(=O)N1Cc2cc(-c3nc(-c4cn(C)cn4)c4ccsc4c3-c3c(F)cc(F)cc3OC(C)C)nn2CC1C (centres unmarked) [Compound 496] | A (percent of modification of PIK3CA protein ≥75%)

Row | IC50 (pAKT in BT474 cells) [nM] | IC50 (pAKT in BT474 cells; Homo sapiens, BT-474) [nM] | SMILES | % of modification [1]
18 | < 100 | – | C=CC(=O)N1Cc2cc(-c3nc(-c4ccc5nc(C)oc5c4)c4ccsc4c3-c3c(F)cc(F)cc3OCCOC)nn2CC1C (centres unmarked) [Compound 497] | A (percent of modification of PIK3CA protein ≥75%)
19 | < 100 | – | C=CC(=O)N1CCc2ccc(-c3nc(-c4cnc5c(c4)CN(C)CC5)c4ccsc4c3-c3c(F)cc(F)cc3OCCO)cc2C1 [Compound 498] | A (percent of modification of PIK3CA protein ≥75%)
20 | < 100 | – | C=CC(=O)N1CCc2ccc(-c3nc(-c4cnc5c(c4)CNC(=O)C5)c4ccsc4c3-c3c(F)cc(F)cc3OC(C)C)cc2C1 [Compound 499] | A (percent of modification of PIK3CA protein ≥75%)
21 | < 100 | – | C=CC(=O)N1CCn2nc(-c3nc(-c4ccc5c(c4)CCN(C)C5)c4ccsc4c3-c3c(F)cc(F)cc3OC(C)C)cc2[C@@H]1C [Compound 502] | A (percent of modification of PIK3CA protein ≥75%)
22 | < 100 | – | C=CC(=O)N1Cc2cc(-c3nc(-c4ccc5c(c4)CCN(C)C5)c4ccsc4c3-c3c(F)cc(F)cc3OCC)nn2CC1C (centres unmarked) [Compound 503] | A (percent of modification of PIK3CA protein ≥75%)
23 | < 100 | – | C=CC(=O)N1Cc2cc(-c3nc(-c4cnc5c(c4)CN(C)C5=O)c4ccsc4c3-c3c(F)cc(F)cc3OCCOC)nn2C[C@H]1C [Compound 504] | A (percent of modification of PIK3CA protein ≥75%)
24 | < 100 | – | C=CC(=O)N1Cc2cc(-c3nc(-c4cnc5c(c4)CN(C)C5=O)c4ccsc4c3-c3c(F)cc(F)cc3OC(C)C)nn2[C@@H](C)C1 [Compound 505] | A (percent of modification of PIK3CA protein ≥75%)
25 | < 100 | – | C=CC(=O)N1Cc2cc(-c3nc(-c4cnc5c(c4)CN(C)C5=O)c4ccsc4c3-c3c(F)cc(F)cc3OCCOC)nn2[C@@H](C)C1 [Compound 506] | A (percent of modification of PIK3CA protein ≥75%)
26 | < 100 | – | C=CC(=O)N1CCn2nc(-c3nc(-c4ccc5c(c4)CCN(C)C5)c4ccsc4c3-c3c(F)cc(F)cc3OC(C)C)cc2[C@H]1C [Compound 507] | A (percent of modification of PIK3CA protein ≥75%)
27 | < 100 | – | C=CC(=O)N1Cc2cc(-c3nc(-c4cn(C)cn4)c4ccsc4c3-c3c(F)cc(F)cc3OCCOC)nn2[C@@H](C)C1 [Compound 509] | A (percent of modification of PIK3CA protein ≥75%)
28 | < 100 | – | C=CC(=O)N1CCn2nc(-c3nc(-c4ccc5c(c4)CCN(C)C5)c4ccsc4c3-c3c(F)cc(F)cc3OCCOC)cc2[C@H]1C [Compound 510] | A (percent of modification of PIK3CA protein ≥75%)
29 | < 100 | – | C=CC(=O)N1Cc2cc(-c3nc(-c4ccc(C5(N)COC5)cc4)c4ccsc4c3-c3c(F)cc(F)cc3OC(C)C)nn2[C@@H](C)C1 [Compound 511] | A (percent of modification of PIK3CA protein ≥75%)
30 | < 100 | – | C=CC(=O)N1Cc2cc(-c3nc(-c4ccc5c(c4)CCN(C)C5)c4ccsc4c3-c3c(F)cc(F)cc3OCCO)nn2C[C@H]1C [Compound 512] | A (percent of modification of PIK3CA protein ≥75%)
31 | < 100 | – | C=CC(=O)N1Cc2cc(-c3nc(-c4cnc5c(c4)CN(C)C5=O)c4ccsc4c3-c3c(F)cc(F)cc3OC(C)C)nn2C[C@H]1C [Compound 513] | A (percent of modification of PIK3CA protein ≥75%)
32 | < 100 | – | C=CC(=O)N1Cc2cc(-c3nc(-c4cnn(CC(C)(C)O)c4)c4ccsc4c3-c3c(F)cc(F)cc3OCCOC)nn2C[C@H]1C [Compound 514] | A (percent of modification of PIK3CA protein ≥75%)
33 | < 100 | – | C=CC(=O)N1Cc2cc(-c3nc(-c4cnc5c(c4)CNC(=O)C5)c4ccsc4c3-c3c(F)cc(F)cc3OCCOC)nn2[C@@H](C)C1 [Compound 515] | A (percent of modification of PIK3CA protein ≥75%)
34 | < 100 | – | C=CC(=O)N1Cc2cc(-c3nc(-c4ccc5c(c4)CCN(C)C5)c4ccsc4c3-c3c(F)cc(F)cc3OC3CC3)nn2C[C@H]1C [Compound 516] | A (percent of modification of PIK3CA protein ≥75%)
